Laboratory results published in patent US20250353864A1, “INDAZOLE CONTAINING MACROCYCLES AND THEIR USE” (BLOSSOMHILL THERAPEUTICS, INC., priority 2022, published 2025).

Key:
Format in all cases: biochemical
[1] = biological target: EGFR WT (Homo sapiens (Human), UniProt P00533); assay: HotSpot radiometric kinase assay (Reaction Biology), EGFR WT; details: 10 μM ATP
Outline: (§1)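 IC50 values come from curve fits of ^33P incorporation captured on P81 filters after acid washing. Kinase reactions ran 120 min at room temperature with 10 μM ATP, added about 20 min after compound. Buffer was Hepes pH 7.5 containing Mg, DTT and 1% DMSO.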

[2] = biological target: EGFR (D770_N771insNPG) (Homo sapiens (Human), UniProt P00533, INS770NPG); assay: HotSpot radiometric kinase assay, EGFR (D770_N771insNPG); details: 10 μM ATP, read-out: EGFR (Δ770_N771insNPG) IC50
Outline: as §1

[3] = biological target: EGFR Δ746-750 mutant (Homo sapiens (Human), UniProt P00533, DEL746-750); assay: HotSpot radiometric kinase assay, EGFR Δ746-750 mutant; details: 10 μM ATP
Outline: as §1

[4] = biological target: EGFR Δ746-750/C797S mutant (Homo sapiens (Human), UniProt P00533, C797S/DEL746-750); assay: HotSpot radiometric kinase assay, EGFR Δ746-750/C797S mutant; details: 10 μM ATP
Outline: as §1

[5] = biological target: EGFR L858R mutant (Homo sapiens (Human), UniProt P00533, L858R); assay: HotSpot radiometric kinase assay, EGFR L858R mutant; details: 10 μM ATP
Outline: as §1

[6] = biological target: EGFR L858R/T790M mutant (Homo sapiens (Human), UniProt P00533, L858R/T790M); assay: HotSpot radiometric kinase assay, EGFR L858R/T790M mutant; details: 10 μM ATP
Outline: as §1

[7] = biological target: EGFR L858R/T790M/C797S mutant (Homo sapiens (Human), UniProt P00533, C797S/L858R/T790M); assay: HotSpot radiometric kinase assay, EGFR L858R/T790M/C797S mutant; details: 10 μM ATP
Outline: as §1

[8] = biological target: CLK1 (Homo sapiens (Human), UniProt P49759); assay: Inhibition of CLK1 kinase activity evaluated at Nanosyn (ADP-Glo); details: ADP-Glo luminescence
Protocol: (§2) Inhibition of CLK, CLK2, CLK3 and CLK4 Kinase Activity Evaluated at Nanosyn
(§3) Kinase protein and substrate were pre-diluted in the HEPES assay buffer (100 mM HEPES, pH 7.5, 0.01% Triton X-100, 0.1% BSA, 5 mM MgCl2, […] DTT, 10 Sodium Orthovanadate, […] Beta-Glycerophosphate) dispensed into 384 well plate (5 μL per well). Control samples (0%-inhibition in the absence of inhibitor, DMSO only) and 100%-inhibition (in the absence of enzyme) were assembled in replicates of six and were used to calculate %-inhibition in the presence of compounds. Test compounds were added to the protein samples by acoustic dispensing (Labcyte Echo550). Concentration of DMSO was equalized to 1% in all samples. Reactions were initiated by addition of ATP by acoustic dispensing (Labcyte Echo550) and incubated according to assay specific incubation time. After incubation. 5 μL of Promega ADP-Glo reagent was added and incubated for 40 minutes. After 40 minutes, 10 uL of Promega kinase detection reagent was added. After 10 min of incubation with Kinase detection reagent, the luminescence was read on microplate reader (Biotek Synergy).

[9] = biological target: CLK2 (Homo sapiens (Human), UniProt P49760); assay: Inhibition of CLK2 kinase activity evaluated at Nanosyn (ADP-Glo); details: ADP-Glo luminescence
Protocol: as §2, §3

[10] = biological target: CLK3 (Homo sapiens (Human), UniProt P49761); assay: Inhibition of CLK3 kinase activity evaluated at Nanosyn (ADP-Glo); details: ADP-Glo luminescence
Protocol: as §2, §3

[11] = biological target: CLK4 (Homo sapiens (Human), UniProt Q9HAZ1); assay: Inhibition of CLK4 kinase activity evaluated at Nanosyn (ADP-Glo); details: ADP-Glo luminescence
Protocol: as §2, §3

Chain of EGFR L858R/T790M/C797S mutant (P00533 25-1210 T790M/C797S/L858R): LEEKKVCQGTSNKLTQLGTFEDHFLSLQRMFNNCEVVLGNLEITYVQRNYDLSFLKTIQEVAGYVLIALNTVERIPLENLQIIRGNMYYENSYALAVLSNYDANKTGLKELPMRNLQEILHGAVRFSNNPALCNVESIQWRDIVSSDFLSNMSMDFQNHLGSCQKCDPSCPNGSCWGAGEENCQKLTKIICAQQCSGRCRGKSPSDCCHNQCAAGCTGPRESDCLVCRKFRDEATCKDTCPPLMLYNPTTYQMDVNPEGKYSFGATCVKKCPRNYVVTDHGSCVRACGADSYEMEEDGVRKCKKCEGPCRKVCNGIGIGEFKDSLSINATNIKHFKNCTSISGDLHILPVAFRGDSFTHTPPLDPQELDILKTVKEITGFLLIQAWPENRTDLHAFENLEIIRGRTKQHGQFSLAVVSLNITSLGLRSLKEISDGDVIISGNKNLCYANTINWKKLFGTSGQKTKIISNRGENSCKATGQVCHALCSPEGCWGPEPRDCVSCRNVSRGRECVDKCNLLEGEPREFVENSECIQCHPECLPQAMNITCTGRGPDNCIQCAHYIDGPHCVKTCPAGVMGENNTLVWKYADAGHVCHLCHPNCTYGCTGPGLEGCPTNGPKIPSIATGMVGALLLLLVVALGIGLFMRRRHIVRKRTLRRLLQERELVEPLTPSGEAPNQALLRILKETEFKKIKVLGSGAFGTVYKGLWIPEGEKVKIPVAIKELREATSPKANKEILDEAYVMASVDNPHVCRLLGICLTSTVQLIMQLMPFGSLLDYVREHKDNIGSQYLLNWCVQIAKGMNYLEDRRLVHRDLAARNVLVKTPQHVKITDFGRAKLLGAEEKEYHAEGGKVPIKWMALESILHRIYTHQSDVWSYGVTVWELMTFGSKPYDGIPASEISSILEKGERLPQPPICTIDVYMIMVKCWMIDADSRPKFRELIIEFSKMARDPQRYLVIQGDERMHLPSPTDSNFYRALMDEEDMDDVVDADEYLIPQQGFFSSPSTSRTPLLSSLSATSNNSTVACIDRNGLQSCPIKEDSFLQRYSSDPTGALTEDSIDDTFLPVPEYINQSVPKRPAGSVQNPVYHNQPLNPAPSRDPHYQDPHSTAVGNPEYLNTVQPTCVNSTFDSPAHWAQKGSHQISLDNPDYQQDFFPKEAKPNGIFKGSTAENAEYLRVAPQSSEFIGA
Chain of EGFR Δ746-750/C797S mutant (P00533 other isoform, or with tags, fused parts or gaps C797S/del 1-668/del 746-750 limits assumed): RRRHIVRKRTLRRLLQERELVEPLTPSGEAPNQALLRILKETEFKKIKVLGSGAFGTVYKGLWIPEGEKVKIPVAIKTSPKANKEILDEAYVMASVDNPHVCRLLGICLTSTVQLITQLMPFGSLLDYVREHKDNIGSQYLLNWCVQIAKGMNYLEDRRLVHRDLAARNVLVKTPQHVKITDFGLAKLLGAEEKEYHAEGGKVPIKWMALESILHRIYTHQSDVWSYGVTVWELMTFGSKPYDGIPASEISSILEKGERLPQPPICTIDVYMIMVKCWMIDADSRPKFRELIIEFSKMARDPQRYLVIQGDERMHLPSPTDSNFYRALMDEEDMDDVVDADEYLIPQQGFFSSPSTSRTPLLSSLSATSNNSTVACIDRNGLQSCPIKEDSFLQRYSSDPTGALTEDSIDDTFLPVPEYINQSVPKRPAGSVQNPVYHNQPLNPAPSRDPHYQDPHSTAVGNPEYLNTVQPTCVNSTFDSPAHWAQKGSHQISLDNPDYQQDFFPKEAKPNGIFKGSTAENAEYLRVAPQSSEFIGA
Chain of EGFR L858R mutant (P00533 25-1210 L858R): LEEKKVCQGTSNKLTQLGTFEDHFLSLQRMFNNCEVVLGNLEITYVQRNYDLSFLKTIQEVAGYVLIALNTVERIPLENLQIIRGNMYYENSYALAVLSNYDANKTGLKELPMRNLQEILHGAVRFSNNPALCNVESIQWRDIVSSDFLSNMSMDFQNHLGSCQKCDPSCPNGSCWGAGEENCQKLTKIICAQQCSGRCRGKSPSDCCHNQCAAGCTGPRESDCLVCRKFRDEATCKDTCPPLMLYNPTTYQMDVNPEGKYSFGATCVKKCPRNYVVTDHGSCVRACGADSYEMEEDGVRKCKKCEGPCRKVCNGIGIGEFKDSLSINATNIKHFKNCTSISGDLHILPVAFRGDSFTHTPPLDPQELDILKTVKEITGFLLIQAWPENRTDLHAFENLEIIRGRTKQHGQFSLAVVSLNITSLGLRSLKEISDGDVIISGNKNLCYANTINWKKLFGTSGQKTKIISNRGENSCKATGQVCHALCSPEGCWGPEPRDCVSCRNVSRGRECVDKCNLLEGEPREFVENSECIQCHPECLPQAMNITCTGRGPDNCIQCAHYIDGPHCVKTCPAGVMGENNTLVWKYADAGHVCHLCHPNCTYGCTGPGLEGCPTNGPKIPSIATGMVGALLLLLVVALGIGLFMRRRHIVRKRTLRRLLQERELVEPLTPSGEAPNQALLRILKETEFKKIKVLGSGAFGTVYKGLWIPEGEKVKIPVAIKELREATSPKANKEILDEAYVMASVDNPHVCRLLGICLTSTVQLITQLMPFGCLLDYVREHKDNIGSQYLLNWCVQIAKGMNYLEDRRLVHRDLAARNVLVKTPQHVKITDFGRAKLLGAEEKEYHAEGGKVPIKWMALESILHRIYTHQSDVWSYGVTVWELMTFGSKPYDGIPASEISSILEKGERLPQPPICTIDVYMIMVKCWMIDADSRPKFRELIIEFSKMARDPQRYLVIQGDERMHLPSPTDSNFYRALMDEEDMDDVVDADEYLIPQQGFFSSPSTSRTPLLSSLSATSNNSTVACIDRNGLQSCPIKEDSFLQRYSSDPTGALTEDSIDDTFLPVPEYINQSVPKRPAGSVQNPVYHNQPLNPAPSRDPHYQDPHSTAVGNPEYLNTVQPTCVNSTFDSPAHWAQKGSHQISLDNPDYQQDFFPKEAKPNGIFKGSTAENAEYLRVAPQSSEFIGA
Chain of EGFR WT (P00533 25-1210): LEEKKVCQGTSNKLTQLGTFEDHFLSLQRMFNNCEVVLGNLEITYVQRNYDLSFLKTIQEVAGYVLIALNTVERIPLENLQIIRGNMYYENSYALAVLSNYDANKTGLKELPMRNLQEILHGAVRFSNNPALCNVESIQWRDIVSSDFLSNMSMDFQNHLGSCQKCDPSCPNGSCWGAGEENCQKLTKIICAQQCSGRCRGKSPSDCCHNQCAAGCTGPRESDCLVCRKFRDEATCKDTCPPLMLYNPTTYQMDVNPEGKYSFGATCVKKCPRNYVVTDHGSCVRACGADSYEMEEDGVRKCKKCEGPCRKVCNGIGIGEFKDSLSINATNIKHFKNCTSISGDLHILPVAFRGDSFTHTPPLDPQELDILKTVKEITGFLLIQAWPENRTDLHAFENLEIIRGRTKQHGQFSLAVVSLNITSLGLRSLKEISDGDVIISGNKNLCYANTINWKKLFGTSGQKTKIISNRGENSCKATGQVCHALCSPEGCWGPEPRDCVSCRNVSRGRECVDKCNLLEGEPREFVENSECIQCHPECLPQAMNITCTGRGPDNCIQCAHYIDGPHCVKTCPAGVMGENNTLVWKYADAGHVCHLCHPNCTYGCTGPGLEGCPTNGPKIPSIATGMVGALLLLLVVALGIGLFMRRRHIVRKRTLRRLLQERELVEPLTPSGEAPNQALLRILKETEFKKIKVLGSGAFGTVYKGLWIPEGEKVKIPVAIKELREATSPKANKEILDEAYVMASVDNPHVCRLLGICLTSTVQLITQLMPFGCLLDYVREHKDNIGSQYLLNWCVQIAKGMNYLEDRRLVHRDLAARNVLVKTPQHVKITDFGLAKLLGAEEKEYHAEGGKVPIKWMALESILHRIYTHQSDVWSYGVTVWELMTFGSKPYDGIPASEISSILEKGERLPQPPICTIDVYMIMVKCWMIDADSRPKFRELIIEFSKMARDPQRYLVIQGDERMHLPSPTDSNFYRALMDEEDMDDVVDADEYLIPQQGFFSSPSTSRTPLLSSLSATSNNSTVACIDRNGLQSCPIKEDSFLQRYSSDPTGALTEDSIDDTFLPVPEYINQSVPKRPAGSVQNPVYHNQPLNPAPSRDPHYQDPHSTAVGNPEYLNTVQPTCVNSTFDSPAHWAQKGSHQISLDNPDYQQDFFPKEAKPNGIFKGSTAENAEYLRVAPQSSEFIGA
Chain of EGFR (D770_N771insNPG) (P00533 other isoform, or with tags, fused parts or gaps del 1-668/ins NPG behind 770 limits assumed): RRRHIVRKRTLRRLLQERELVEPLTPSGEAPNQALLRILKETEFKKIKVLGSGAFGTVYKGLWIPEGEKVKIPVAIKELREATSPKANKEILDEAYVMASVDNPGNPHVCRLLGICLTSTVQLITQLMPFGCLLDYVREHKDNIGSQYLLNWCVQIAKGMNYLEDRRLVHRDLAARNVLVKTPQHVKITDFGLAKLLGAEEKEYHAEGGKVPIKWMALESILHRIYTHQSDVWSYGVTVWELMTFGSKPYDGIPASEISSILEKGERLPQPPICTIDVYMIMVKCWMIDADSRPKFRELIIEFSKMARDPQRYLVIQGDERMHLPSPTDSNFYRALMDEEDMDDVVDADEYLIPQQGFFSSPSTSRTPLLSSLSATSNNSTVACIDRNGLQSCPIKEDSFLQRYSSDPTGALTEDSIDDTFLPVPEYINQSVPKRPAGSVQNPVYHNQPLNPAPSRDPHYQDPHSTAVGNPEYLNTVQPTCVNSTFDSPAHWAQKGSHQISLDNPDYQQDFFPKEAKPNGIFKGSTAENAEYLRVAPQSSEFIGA

SMILES	IC50 [1] [nM]	IC50 [2] [nM]	IC50 [3] [nM]	IC50 [4] [nM]	IC50 [5] [nM]	IC50 [6] [nM]	IC50 [7] [nM]	IC50 [8] [nM]	IC50 [9] [nM]	IC50 [10] [nM]	IC50 [11] [nM]
CCOc1nn(CCO)c2c1/C=C/c1n[nH]c3ccc(cc13)-c1c(C)nn(C)c1O[C@@H](C)CN(C(C)C)C2 [Example 142, 2-[(10S,17E)-16-ethoxy-6,8,10-trimethyl-12-(propan-2-yl)-2,8,10,11,12,13-hexahydro-14H-3,5-ethenotripyrazolo[3,4-f:3′,4′-j:4″,3″- n][1,4]oxazacyclopentadecin-14-yl]ethan-1-ol]	2.14	16.7	1.11	1.32	0.9	1.29	1.83	11.9	13.9	1000	5.91
CCOc1nn(CCO)c2c1/C=C/c1n[nH]c3cc(F)c(cc13)-c1cnn(C)c1O[C@@H]1CCCN(C2)C1 [Example 191, 2-[(10R,19E)-18-ethoxy-22-fluoro-8-methyl-2,10,11,12,13,15-hexahydro-3,5-etheno-10,14-methanotripyrazolo[3,4-h:3′,4′-l:4″,3″-p][1,6]oxazacycloheptadecin-16(8H)-yl]ethan-1-o]	19.8	102	9.04	4.19	5.61	4.23	2.63	2.42	4.37	43.4	2.41
Cc1nn(C)c2c1/C=C/c1n[nH]c3ccc(cc13)-c1cnn(C)c1CN(C)CCO2 [Example 55, (17E)-8,10,14,16-tetramethyl-2,9,10,11,12,14-hexahydro-8H-3,5-ethenotripyrazolo[3,4-f:4′,3′-j:4″,3″- n][1,4]oxazacyclopentadecine]	101	78.3	33.4	8.93	35.2		4.1	0.09	0.13	185	0.58
Cc1c2c(nn1C)OCCOCc1c(cnn1C)-c1ccc3[nH]nc(c3c1)/C=C/2 [Ex. 7, (17E)-8,15,16-trimethyl-2,8,9,11,12,15-hexahydro-3,5-etheno[1,4]dioxacyclopentadecino[11,10-c:15,14-c′:6,7-c″]tripyrazole]	> 1000	2120	898		687		202	0.2	0.08	45.2	0.48
CCNc1nn(CCO)c2c1/C=C/c1n[nH]c3ccc(cc13)-c1cnn(C)c1O[C@@H](C)CN(C)C2 [Example 295, 2-[(10S,17E)-16-(ethylamino)-8,10,12-trimethyl-2,8,10,11,12,13-hexahydro-14H-3,5-ethenotripyrazolo[3,4-f:3′,4′-j:4″,3″-n][1,4]oxazacyclopentadecin-14-yl]ethan-1-ol]								0.64	0.78	13.8	1.12
C#Cc1nn(C)c2c1-c1ccc3[nH]nc(c3c1)/C=C/c1c(OCC)nn(CCO)c1CN(C)C[C@H](C)O2 [Example 292, 2-[(10S,17E)-16-ethoxy-6-ethynyl-8,10,12-trimethyl-2,8,10,11,12,13-hexahydro-14H-3,5-ethenotripyrazolo[3,4-f:3′,4′-j:4″,3″-n][1,4]oxazacyclopentadecin-14-yl]ethan-1-ol]								1.01	4.87	1000	1.36
Cc1noc2c1/C=C/c1n[nH]c3ccc(cc13)-c1cnn(C)c1O[C@@H](C)CN(C)C2 [Example 141, (10S,17E)-8,10,12,16-tetramethyl-2,8,10,11,12,13-hexahydro-3,5-etheno[1,2]oxazolo[5,4-f]dipyrazolo[3,4-j:4′,3′-n][1,4]oxazacyclopentadecine]								0.11	0.03	41.9	0.13
